Measured values published in patent publication US20260132103A1, “Bumetanide Derivatives for the Therapy of Stroke and Other Neurological Diseases/Disorders Involving NKCCs” (University of Pittsburgh - Of the Commonwealth System of …, priority 2018, published 2026).

Assays:
[1] = system: transient focal cerebral ischemia (tMCAO) in mice; assay: Brain infarct volume and swelling after transient focal cerebral ischemia (tMCAO); assay type: in vivo, mouse; conditions: 24 h reperfusion, i.p.
Procedure: (§1) FIGS. 1A-1C: Efficacy of NKCC1 inhibitors in reducing ischemic infarction, cerebral edema, and the post-stroke survival in normotensive mice after tMCAO (see Example 3). (1A) Experimental protocol and data collection. Transient middle cerebral artery occlusion (tMCAO) was induced in normal C57/b6 mice. DMSO, BMT (10 mg/kg body weight), STS5 (13 mg/kg) or STS66 (12 mg/kg) was administered via intraperitoneal injection (i.p.) as described in method. (1 B) Representative TTC staining images in normotensive mice at 24 h reperfusion with quantitative analysis of infarct volume. Data are mean±SD, n=6-13 (male, n=3-9; female, n=3-4, *p<0.05). Scale: 5 mm. (1C) Percentage hemisphere swelling at 24 h reperfusion. Data are mean±SD, n=6-13, *p<0.05. (1D) Body weight change during 1-14 days after tMCAO. Data are mean±SD, n=5-9 (male, n=4; female, n=2, *p<0.05). (1E) Survival curve during 1-14 day after tMCAO. Data are mean±SD, n=5-9 (male, n=3-7; female, n=2, *p<0.05).
(§2) Transient focal cerebral ischemia was induced in mice by intraluminal occlusion of the left middle cerebral artery (MCA) for 50 min as described previously (Chen H et al., 2005). Mice were anesthetized with 3% isoflurane in 70%: 30% N2O/O2 until they were unresponsive to the tail pinch test. Animals were then fitted with a nose cone blowing 1.5% isoflurane for anesthesia maintenance. The left common carotid artery was exposed and the occipital artery branches of the external carotid artery were isolated and coagulated. The internal carotid artery was isolated and the extracranial branch was dissected and ligated. A rubber silicon-coated monofilament suture (6-0) was introduced into the internal carotid artery lumen and gently advanced approximately 8-9 mm to block the MCA blood flow for 50 min. The rectal temperature was maintained at 37.0±0.5° C. during surgery through a temperature-controlled heating pad. Achievement of ischemia was confirmed by monitoring regional cerebral blood flow (rCBF) with laser speckle contrast imager (Pericam). For reperfusion, the suture was withdrawn after the MCAO. The incision was closed and the mouse recovered under a heating lamp to maintain the core temperature (36.0-37.0° C.) during the 30-60 min recovery period. After recovery, animals were returned to their cages with free access to food and water.
(§3) Vehicle: DMSO (2 ml/kg body weight/day), the NKCC1 inhibitor bumetanide (BMT, 10 mg/kg body weight/day in DMSO), bumetanide's prodrug STS5 (13 mg/kg body weight/day in DMSO), or the novel NKCC1 inhibitor STS66 according to the invention (12 mg/kg body weight/day in DMSO) was administered via intraperitoneal injection (i.p). The initial half dose of the drugs (BMT, STS5, STS66) was given at 3 h after the onset of reperfusion and the second half dose at 8 h reperfusion in the tMCAO model.
At 24 h post-reperfusion, mice were anesthetized with 5% isoflurane and then decapitated. Coronal brain slices (2 mm thickness) were stained with 1% 2,3,5-triphenyltetrazolium chloridemonohydrate (TTC) for 20-30 min and brain slices were scanned (Begum G et al., 2015). Ischemic lesions were traced in each slice in a blinded manner, and the total volume of infarction was calculated with correction for edema, as described by Swanson et al., 1990 using ImageJ software. Infarct areas were summed across all slices and multiplied by slice thickness to yield total infarct volume (mm^3). Brain swelling was determined with the following formula. For tMCAO: swelling (% contralateral hemispheric volume)=[(ipsilateral hemispheric volume)−(contralateral hemispheric volume)]/(contralateral hemispheric volume)×100, as described before (Guo Q G et al., 2009; Sunghee Cho et al., 2005).

[2] = system: transient focal cerebral ischemia (tMCAO) in mice; assay: Body weight and survival 1-14 days after tMCAO; assay type: in vivo, mouse
Procedure: as §1, §2, §3

SMILES: CCCCNc1cc(C(=O)OCCN(C)C)cc(S(N)(=O)=O)c1Oc1ccccc1 [STS5]
- infarct volume in female mice ([1]; female mice only, STS5 13, STS66 12 mg/kg/day): 46.9±5.0 mm^3
- hemispheric edema (hemisphere swelling) ([1]; normotensive C57BL/6j mice, half dose at 3 h and 8 h reperfusion, BMT 10, STS5 13, STS66 12 mg/kg/day, mean±SD): 12.6±4.5%
- infarct volume ([1]; normotensive C57BL/6j mice, male and female combined, half dose at 3 h and 8 h reperfusion, BMT 10, STS5 13, STS66 12 mg/kg/day, mean±SD): 49.5±20.6 mm^3
- body weight changes ([2]; 1-14 days after tMCAO, versus DMSO Veh control): no differences in the body weight changes
- mortality rate ([2]; between 1-14 days post tMCAO, BMT 10, STS5 13, STS66 12 mg/kg/day i.p.): ~66.7%
